# In US9549985B2, “Compositions comprising polymers prepared from 2-hydroxyalkyl acids” (UNIVERSITE DE GENEVE, priority 2010, dated 2017):
# Test: Solubility of Haloperidol in the hexPLA matrix
# Type: physicochemical
# Settings: depends on polymer molecular weight
structure (smiles),measurement,value
O=C(CCCN1CCC(O)(c2ccc(Cl)cc2)CC1)c1ccc(F)cc1 [Haloperidol],Solubility of Haloperidol in hexPLA matrix,dissolvable
